Data from US10739333B2, “Methods of BH3 profiling” (Dana-Farber Cancer Institute, Inc., priority 2013, dated 2020).

Columns and labels:
SuDHL4 cell line = assay: miBH3 profile of the SuDHL4 cell line (FIG. 4); format: cell-based; settings: FIG. 4A, matches other BH3 profiling methods in FIG. 4B
Protocol: BH3 profiling can be accomplished at the single cell level by immobilizing cells on a solid surface. Optionally the solid surface is polyamine or poly-lysine coated. Immobilized cells are permeabilized as described above. The cells are then contacted with BH3 peptides and/or test agents. After the cells have been treated for a predetermined period of time such as 45-90 minutes, the cells are fixed and further permeabilized by methods known in the art. For example the cells are fixed with formaldehyde and further permeabilized with methanol or Triton X-100 (t-Octylphenoxypolyethoxyethanol). Outer membrane permeabilization is determined by intracellular staining for molecules from the mitochondrial inter-membrane space and a mitochondrial marker. Examples of molecules that can be measured include cytochrome c, SMAC/Diablo, Omi, adenylate kinase-2 or apoptosis inducing factor (AIF). A mitochondrial marker includes MnSOD. Stained cells can be counterstained with nuclear stains such as DAPI. Optionally other intracellular and extracellular markers can be measured. […]
MicroBH3 (miBH3) is a BH3 profiling method where the measurement of the mitochondrial effect of […] peptides have on individual cells by microscopy. […] Fixed cells by this method can be readily stopped at the fixation step and can be analyzed weeks after acquisition as well as readily re-analyzed if needed.

MDA-MB-231 = assay: BH3 profiling in pre-made frozen versus freshly prepared plates (FIG. 5); format: cell-based; settings: responsive cells MDA-MB-231
Description: Also included in the invention are kits for performing BH3 Profiling using whole cells. The kit consists of a multi-well plate containing staining components in a mitochondrial buffer and a tube of mitochondrial buffer for the suspension and dispensing of cells into the plate for analysis. Each well of the multi-well plate contains a mixture of JC-1 dye, oligomycin, 2-mercaptoethanol, digitonin, and a peptide or small molecule at twice their final concentration, Optionally the plate and suspension buffer tube can be frozen for later use along with the suspension buffer tube. To use, the plate and buffer tube are thawed and brought to room temperature. Cells are suspended in buffer, dispensed into the wells of the plate, and analyzed in a fluorescence plate reader using the JC-1 red fluorescence at 590 nm with excitation at 545 nm.

BAD: BH3 domain peptide LWAAQRYGRELRRMSDEFEGSFKGL, SEQ ID NO 4
release of cytochrome c / loss of correlation between cytochrome c and MnSOD channels (SuDHL4 cell line): Release of cytochrome c and loss of correlation
response to peptide treatment in frozen and freshly prepared plates (MDA-MB-231): comparable response
